Values quoted from earlier work as cited in patent publication US8227637B2, “Stable, water-soluble near infrared dyes” (Epolin, Inc., priority 2008, dated 2012).

Conditions: SbF6 salt of U.S. Pat. No. 3,709,830, statement in background

water solubility: not water-soluble
SMILES: OCCN(CCO)c1ccc([N+](=C2C=CC(=[N+](c3ccc(N(CCO)CCO)cc3)c3ccc(N(CCO)CCO)cc3)C=C2)c2ccc(N(CCO)CCO)cc2)cc1.[F][Sb-]([F])([F])([F])([F])[F].[F][Sb-]([F])([F])([F])([F])[F] [N,N′,N″,N′″-tetrakis(4-[di(2-hydroxyethyl)amino]-phenyl)-p-benzoquinonebis(imoniumhexafluoro-antimonate)]
